We go through eleven compounds from patent US12595280B2, “Phosphoramidates for the treatment of hepatitis B virus” (priority 2014, dated 2026).

Like-named read-outs stand apart in the source and are kept apart here.

The test system of one data set is HBV. In words: HBV efficacy assay: viral DNA in HepG2.2.15 supernatant by qPCR. Particulars: Hepatitis B virus. In kind it is cell-based. The procedure:
HepG2.2.15 cells (100 μL) in RPMI1640 medium with 10% fetal bovine serum was added to all wells of a 96-well plate at a density of 1×10^4 cells per well and the plate was incubated at 37° C. in an environment of 5% CO2 for 24 hours. Following incubation, six ten-fold serial dilutions of test compound prepared in RPMI1640 medium with 10% fetal bovine serum were added to individual wells of the plate in triplicate. Six wells in the plate received medium alone as a virus only control. The plate was incubated for 6 days at 37° C. in an environment of 5% CO2. The culture medium was changed on day 3 with medium containing the indicated concentration of each compound. One hundred microliters of supernatant was collected from each well for analysis of viral DNA by qPCR and cytotoxicity was evaluated by XTT staining of the cell culture monolayer on the sixth day.
Ten microliters of cell culture supernatant collected on the sixth day was diluted in qPCR dilution buffer (40 μg/mL sheared salmon sperm DNA) and boiled for 15 minutes. Quantitative real time PCR was performed in […] using an Applied Biosystems 7900HT Sequence Detection System and the supporting SDS 2.4 software. Five microliters (5 μL) of boiled DNA for each sample and serial 10-fold dilutions of a quantitative DNA standard were subjected to real time Q-PCR using Platinum Quantitative PCR SuperMix-UDG (Invitrogen) and specific DNA oligonucleotide primers (IDT, Coralville, […]) HBV-AD38-qF1 (5′-CCGTCTGTGCCTTCTCATCTG-3′) (SEQ ID NO: 1), HBV-AD38-qR1 (5′-AGT CCA AGA GTY CTC TTA TRY AAG ACC TT-3′) (SEQ ID NO: 2), and HBV-AD38-qP1 (5′-FAM CCG TGT GCA/ZEN/CTT CGC TTC ACC TCT GC-3′BHQ1) (SEQ ID NO: 3, underlined portion only) at a final concentration of 0.2 μM for each primer in a total reaction volume of 15 μL. The HBV DNA copy number in each sample was interpolated from the standard curve by the SDS.24 software and the data were imported into an Excel spreadsheet for analysis.
(In general: Quantitative PCR measures a nucleic acid by following its amplification.)

For data set [1] the following is noted: human, in vivo; cited from earlier work.
The test system of data set [2] is HBV encoded polymerase (Hepatitis B virus genotype D subtype ayw). Particulars: cited from earlier work.
Chain of HBV encoded polymerase (Hepatitis B virus genotype D subtype ayw) (P03156 whole entry): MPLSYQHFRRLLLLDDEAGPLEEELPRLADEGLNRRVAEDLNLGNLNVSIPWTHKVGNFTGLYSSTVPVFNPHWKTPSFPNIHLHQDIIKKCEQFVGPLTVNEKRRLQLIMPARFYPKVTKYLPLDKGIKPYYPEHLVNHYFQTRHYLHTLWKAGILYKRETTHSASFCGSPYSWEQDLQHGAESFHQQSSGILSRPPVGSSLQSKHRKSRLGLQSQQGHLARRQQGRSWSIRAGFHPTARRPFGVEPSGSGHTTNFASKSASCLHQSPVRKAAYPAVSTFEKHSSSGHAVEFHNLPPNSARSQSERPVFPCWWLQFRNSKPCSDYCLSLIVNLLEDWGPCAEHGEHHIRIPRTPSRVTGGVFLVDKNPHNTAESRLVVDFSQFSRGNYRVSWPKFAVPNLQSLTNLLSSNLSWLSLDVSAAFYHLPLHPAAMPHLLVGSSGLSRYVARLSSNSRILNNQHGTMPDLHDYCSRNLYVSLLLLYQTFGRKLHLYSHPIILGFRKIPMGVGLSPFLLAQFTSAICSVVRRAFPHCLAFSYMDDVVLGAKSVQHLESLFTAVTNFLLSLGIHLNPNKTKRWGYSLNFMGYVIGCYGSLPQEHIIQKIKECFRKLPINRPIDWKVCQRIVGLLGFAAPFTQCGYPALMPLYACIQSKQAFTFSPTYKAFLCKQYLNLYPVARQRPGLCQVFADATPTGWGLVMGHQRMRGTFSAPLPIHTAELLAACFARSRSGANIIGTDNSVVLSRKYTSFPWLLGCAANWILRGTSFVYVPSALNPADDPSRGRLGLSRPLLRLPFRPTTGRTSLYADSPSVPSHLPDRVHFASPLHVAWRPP
Where [3] appears, read: HepG2.2.15, 144 h, read-out: HBV Efficacy Assay EC50 (μM).
[4] abbreviates: 144 h, HepG2.2.15 cells, 6 days, viral DNA in supernatant by qPCR, read-out: HBV Efficacy Assay EC50.

Consider `Cc1cn([C@H]2O[C@@H](CO)[C@H](O)[C@H]2F)c(=O)[nH]c1=O`, for which, in the data set with HBV (setting [3]), the EC50 (as a rule, the midpoint of the concentration-response curve) was determined as 0.46 µM. Same read-out and setting: the value for `Cc1cn([C@H]2O[C@@H](CO[P@@](=O)(N[C@@H](C)C(=O)OC(C)C)Oc3ccccc3)[C@H](O)[C@H]2F)c(=O)[nH]c1=O` was 1.71 µM; that for `Cc1cn([C@H]2O[C@@H](CO[P@](=O)(N[C@@H](C)C(=O)OC(C)C)Oc3ccccc3)[C@H](O)[C@H]2F)c(=O)[nH]c1=O` was 4.29 µM. The same measure, in the same setting: next, `Cc1cn([C@H]2O[C@@H](CO[P@@](=O)(N[C@@H](C)C(=O)OC(C)C)Oc3ccccc3)[C@H](O[P@@](=O)(N[C@@H](C)C(=O)OC(C)C)Oc3ccccc3)[C@H]2F)c(=O)[nH]c1=O`: 2.9 µM; `Cc1cn([C@H]2O[C@@H](CO[P@](=O)(N[C@@H](C)C(=O)OC(C)C)Oc3ccccc3)[C@H](O[P@](=O)(N[C@@H](C)C(=O)OC(C)C)Oc3ccccc3)[C@H]2F)c(=O)[nH]c1=O`: 2.39 µM. As for `Cc1cn([C@H]2O[C@@H](CO)C(O)C2F)c(=S)[nH]c1=O` (some centres unmarked), the EC50 with HBV (setting [4]) was above 100 µM.

Turning to `Cc1cn([C@H]2O[C@@H](CO[P@](=O)(N[C@@H](C)C(=O)OC(C)C)Oc3ccccc3)C(O)C2F)c(=S)[nH]c1=O` (some centres unmarked), in the data set with HBV (setting [3]), the EC50 is above 100 µM. With `Cc1cn([C@H]2O[C@@H](CO[P@@](=O)(N[C@@H](C)C(=O)OC(C)C)Oc3ccccc3)C(O)C2F)c(=S)[nH]c1=O` (some centres unmarked), the EC50 in the data set on HBV (setting [3]) was above 100 µM. With `Nc1ccn([C@@H]2CS[C@H](CO)O2)c(=O)n1`, in the data set with HBV (setting [4]), the concentration for a half-maximal effect (EC50) was 0.14 µM. For `Cc1cn([C@H]2O[C@@H](CO)[C@H](O)[C@H]2F)c(=O)[nH]c1=O` [Clevudine], the “adverse effect in patients” value in data set [1] is recorded as “drug-related skeletal myopathy”.

On to `Cc1cn([C@H]2O[C@@H](COP(=O)(O)OP(=O)(O)OP(=O)(O)O)C(O)C2F)c(=O)[nH]c1=O` (some centres unmarked) [clevudine triphosphate, Clevudine-5′-Triphosphate], for which the “mode of inhibition of the HBV encoded polymerase” value in data set [2] is reported as “competitive non-substrate inhibitor”.
